# Assay results taken from patent US9351952B2, “Use of hesperetin” (NATURAL MEDICINE INSTITUTE OF ZHEJIANG YANGSHENGTANG CO., …, priority 2010, dated 2016).
# Tested on: skin microcirculation in domestic rabbits
# Assay: Effect of topical application of hesperetin on skin microcirculation by Laser Doppler Flowmetery
# Type: in vivo, Oryctolagus cuniculus
# Details: smearing the backs of rabbits with samples of different concentrations
# Description: The experimental method for promoting microcirculation: Male Oryctolagus cuniculus weighted 3.0-3.5 kg were used. After shaving the hair on the back of the Oryctolagus cuniculus, 10 points for testing blood flow were marked with a marker pen on the hairless skin of the rabbit, i.e. 5 points for each of the right side and the left side, and aorta was avoided when drawing the points. Before smearing the sample, the basic values of blood flow at the 10 points of rabbits of each experimental group were determined by Laser Doppler Flowmetery. […] 2% solution was orally administrated by a similar method in a volume 100 times compared to the volume used in the group wherein the 2% solution was administered by smearing. After administration, the blood flow value was determined every hour at the same point by Laser Doppler Flowmetery for 24 h, and the variation index of blood flow was calculated to evaluate the effect of hesperetin on the back blood of rabbits, wherein a higher variation index of blood flow indicates a better effect of promoting microcirculation. The experimental results were statistically analyzed by SPSS11.5 software, t-test was applied to the measured data to evaluate the experimental results. When P<0.1, the data may be regarded as statistically significant. In the results of Table 1, all the time points at with P<0.1 in the 24-h test were listed.
compound,measurement,value
COc1ccc([C@@H]2CC(=O)c3c(O)cc(O)cc3O2)cc1O [Hesperetin],blood flow in skin microvessels as compared to the blank side,significantly enhanced
